Data on three molecules can be found in US6437185B1, “Quaternary ammonium compounds and process for preparing and using same” (Finetex, Inc., priority 1999, dated 2002).

One series concerns EpiDerm (Skin model). Particulars: groupings used to assign irritancy from ET-50; cited from earlier work.
Series [1] has as its system Epiocular samples (Ocular Tissue model). Particulars: literature grouping, Kay and Calandra 1962; cited from earlier work.
Series [2] has the same test system. As to the kind of experiment: In-vitro Mat Tek ocular irritation protocol (Epiocular, Ocular Tissue model). The class given is cell-based. The note with it: for Ocular Results/Classification: tested at 3.0% active. The protocol: Both products were tested at 3.0% active for dermal and ocular irritation by in-vitro Mat Tek Protocols (Skin model and Ocular Tissue model).
Construction of a Dose Response Curve: The extractant solution within each well was pipetted up and down several times to insure that each is well mixed. 200 microliters of each of the mixed extraction solutions was then pipetted into separate wells of a 96 well microtiter plate. A Dynatech MR 4000 Automatic Microplate Reader was used to determine the optical density of each extract at 570 nm. With the absorbance of a negative control defined as 100%, the percent absorbencies of the articles were determined (% viability=100×(OD [article]/OD [negative control]). The calculated percentages directly correlate with the cell metabolism in the Epiocular samples.
Using a semi-log scale, the percent viability (liner “y” axis) was plotted versus the dosing time (log “x” axis). By interpolation, the time at which the viability has dropped to 50% was determined.

Take `CCCCCCCCCCCCOS(=O)(=O)[O-].[Na+]` [2% Sodium Dodecyl Sulfate, Sodium Dodecyl Sulfate]: in the series with EpiDerm (Skin model), the “Expected In vivo Irritancy (example substances of the EpiDerm ET-50 groups)” value is “Moderate (0.5-4)”. Moreover, the “Irritancy Classification (example substances of the Draize score / Epiocular ET-50 groups)” value in series [1] was “Mild (<20.5-9.67)”.

For `O=[N+]([O-])O` [Conc. Nitric Acid, Nitric Acid], the “Expected In vivo Irritancy (example substances of the EpiDerm ET-50 groups)” value in the series with EpiDerm (Skin model) is “Severe, probably corrosive (<0.5)”.

Regarding “N′,N″,N′″-Triethyl, N′,N′,N′″,N′″-Tetramethyl, N″-[(Trioxypropyl)-ω-hydroxycetyl], dipropylene triammonium triethosulfate [FINQUAT ® CT-P]”, in series [2] (3.0% active, dermal and ocular irritation, in-vitro Mat Tek Protocols), the “Mildness in toxicology studies (in words)” value is on record as “milder than FINQUAT® CT”. Besides, the “Ocular Results/Classification” value in series [2] (first table) and in series [2] (second table with the same title) was “Non-Irritancy (as in Peg 75 Lanolin)” throughout.
